This is an account of results in article PMC6934184, “Selective DNA-PKcs inhibition extends the therapeutic index of localized radiotherapy and chemotherapy” (The Journal of Clinical Investigation, 2019).

What is called inhibition is how much of the control response was suppressed. Lower therefore signals a weak effect.

Molecules are shown by their SMILES.

The assay addresses T1, PI4KA (PI4K alpha) (Homo sapiens, UniProt P42356).
T1 construct: purchased Thermo Fisher Scientific (Life Technologies) SelectScreen
Kind of assay: SelectScreen Adapta. The note with it: ATP 10 µM. In kind it is biochemical. The procedure:
The in vitro kinase selectivity of NU5455 was determined using the SelectScreen Broad Assay Panel (Thermo Fisher Scientific) involving activity and binding assays (Supplemental Table 1). […] Class IA PI3Ks were measured using the p85α subunit.
Kinase [ATP] % Assay Kinase [ATP] % Assay Kinase [ATP] % Assay Kinase [ATP] % Assay […]
SGK (SGK1) Km app 8.5 Z MAP4K2 (GCK) Km app 2.7 Z TLK2 n/a -0.3 L STK38 (NDR) n/a -5.9 L
MERTK (cMER) Km app 8.3 Z CDK2/cyclin A Km app 2.7 Z TGFBR1 (ALK5) n/a -0.4 L MATK (HYL) Km app -6.3 Z
FYN Km app 8.3 Z EPHA1 Km app 2.7 Z CLK3 Km app -0.5 Z ABL1 E255K Km app -6.6 Z
TEC n/a 8.1 L CDK2/cyclin E1 n/a 2.7 L MAP3K14 (NIK) n/a -0.5 L STK17A (DRAK1) n/a -6.6 L
KIT V654A n/a 8.1 L TESK2 n/a 2.7 L AKT3 (PKB gamma) Km app -0.5 Z JAK2 JH1 JH2 Km app -6.7 Z
ROS1 Km app 8.0 Z SPHK1 Km app 2.7 A MAP3K9 (MLK1) Km app -0.5 Z PRKACB (PRKAC beta) n/a -6.8 L
FGFR3 K650E Km app 7.9 Z AMPK A2/B1/G1 Km app 2.6 Z IKBKB (IKK beta) Km app -0.6 Z PDGFRA (PDGFR alpha) Km app -6.8 Z
RAF1 (cRAF) Y340D Y341D 100 7.9 Z DYRK3 Km app 2.6 Z CAMK2A (CaMKII alpha) Km app -0.6 Z NEK9 Km app -7.2 Z
PI4KA (PI4K alpha) 10 7.8 A CSNK1D (CK1 delta) Km app 2.6 Z PRKCB1 (PKC beta I) Km app -0.7 Z PDK1 Km app -7.3 Z
HIPK2 Km app 7.8 Z ACVR2A n/a 2.5 L TTK n/a -0.7 L RPS6KB1 (p70S6K) Km app -7.8 Z
CSK Km app 7.6 Z DDR2 T654M n/a 2.5 L ZAK n/a -0.7 L STK38L (NDR2) n/a -8.4 L
PRKCG (PKC gamma) Km app 7.6 Z JAK2 Km app 2.5 Z IKBKE (IKK epsilon) Km app -0.7 Z ABL1 G250E Km app -8.5 Z
SRMS (Srm) Km app 7.5 Z HIPK3 (YAK1) Km app 2.5 Z CAMK2G (CaMKII gamma) n/a -0.8 L PRKD1 (PKC mu) Km app -8.5 Z
YES1 Km app 7.4 Z AMPK (A1/B1/G2) n/a 2.4 L TLK1 n/a -0.8 L CDK5/p35 Km app -8.6 Z
RPS6KA5 (MSK1) Km app 7.4 Z MYO3B (MYO3 beta) n/a 2.3 L MAPK12 (p38 gamma) Km app -0.8 Z PDGFRA T674I Km app -8.9 Z
TNIK n/a 7.3 L PASK Km app 2.3 Z PRKCI (PKC iota) Km app -0.8 Z BLK Km app -8.9 Z
FER Km app 7.1 Z ACVRL1 (ALK1) n/a 2.3 L PKN2 (PRK2) n/a -1.0 L PRKD2 (PKD2) Km app -9.1 Z
CDK16 (PCTK1)/cyclin Y n/a 7.0 L EGFR (ErbB1) L861Q Km app 2.2 Z PIM1 Km app -1.0 Z CSNK1G2 (CK1 gamma 2) Km app -9.3 Z
MST4 Km app 6.9 Z RPS6KA3 (RSK2) Km app 2.1 Z CDK5/p25 Km app -1.1 Z ROCK1 Km app -9.5 Z
FLT1 (VEGFR1) Km app 6.5 Z STK23 (MSSK1) Km app 2.0 Z SRPK1 Km app -1.1 Z PRKCB2 (PKC beta II) Km app -9.6 Z
DYRK1A Km app 6.4 Z ALK R1275Q n/a 2.0 L BRSK1 (SAD1) Km app -1.1 Z CSNK1G1 (CK1 gamma 1) Km app -9.9 Z
PRKCD (PKC delta) Km app 6.2 Z TBK1 Km app 2.0 Z MAP3K3 (MEKK3) n/a -1.1 L ABL2 (Arg) Km app -10.3 Z
EGFR (ErbB1) Km app 6.0 Z ACVR1B (ALK4) Km app 2.0 Z AMPK A1/B1/G1 Km app -1.2 Z STK3 (MST2) Km app -10.3 Z
CDC7/DBF4 n/a 6.0 L CDK3/cyclin E1 n/a 1.9 L WNK3 n/a -1.2 L CAMK4 (CaMKIV) Km app -10.4 Z
JAK3 Km app 6.0 Z KDR (VEGFR2) Km app 1.8 Z LATS1 n/a -1.3 L MKNK1 (MNK1) Km app -10.7 Z
MAPK13 (p38 delta) Km app 5.8 Z ULK1 n/a 1.8 L DMPK n/a -1.5 L FLT3 ITD n/a -11.6 L
FRAP1 (mTOR) Km app 5.7 Z AURKB (Aurora B) Km app 1.7 Z CDK2/cyclin A1 n/a -1.6 L CHEK2 (CHK2) Km app -11.7 Z
KIT Y823D n/a 5.6 L LRRK2 Km app 1.7 A LIMK1 n/a -1.7 L LTK (TYK1) Km app -13.1 Z
ITK Km app 5.5 Z MAP2K3 (MEK3) n/a 1.6 L DYRK1B Km app -1.8 Z JAK2 JH1 JH2 V617F Km app -13.8 Z
KIT Km app 5.3 Z DAPK1 Km app 1.6 A DDR1 n/a -1.8 L EPHA8 Km app -13.8 Z
CDK7/cyclin H/MNAT1 Km app 5.3 A EPHA6 n/a 1.6 L BTK Km app -2.0 Z EGFR (ErbB1) T790M L858R Km app -14.1 Z
RET Km app 5.2 Z MAP4K1 (HPK1) n/a 1.6 L ADRBK1 (GRK2) Km app -2.0 Z MET M1250T Km app -14.5 Z […]

T1 sequence (P42356 whole entry): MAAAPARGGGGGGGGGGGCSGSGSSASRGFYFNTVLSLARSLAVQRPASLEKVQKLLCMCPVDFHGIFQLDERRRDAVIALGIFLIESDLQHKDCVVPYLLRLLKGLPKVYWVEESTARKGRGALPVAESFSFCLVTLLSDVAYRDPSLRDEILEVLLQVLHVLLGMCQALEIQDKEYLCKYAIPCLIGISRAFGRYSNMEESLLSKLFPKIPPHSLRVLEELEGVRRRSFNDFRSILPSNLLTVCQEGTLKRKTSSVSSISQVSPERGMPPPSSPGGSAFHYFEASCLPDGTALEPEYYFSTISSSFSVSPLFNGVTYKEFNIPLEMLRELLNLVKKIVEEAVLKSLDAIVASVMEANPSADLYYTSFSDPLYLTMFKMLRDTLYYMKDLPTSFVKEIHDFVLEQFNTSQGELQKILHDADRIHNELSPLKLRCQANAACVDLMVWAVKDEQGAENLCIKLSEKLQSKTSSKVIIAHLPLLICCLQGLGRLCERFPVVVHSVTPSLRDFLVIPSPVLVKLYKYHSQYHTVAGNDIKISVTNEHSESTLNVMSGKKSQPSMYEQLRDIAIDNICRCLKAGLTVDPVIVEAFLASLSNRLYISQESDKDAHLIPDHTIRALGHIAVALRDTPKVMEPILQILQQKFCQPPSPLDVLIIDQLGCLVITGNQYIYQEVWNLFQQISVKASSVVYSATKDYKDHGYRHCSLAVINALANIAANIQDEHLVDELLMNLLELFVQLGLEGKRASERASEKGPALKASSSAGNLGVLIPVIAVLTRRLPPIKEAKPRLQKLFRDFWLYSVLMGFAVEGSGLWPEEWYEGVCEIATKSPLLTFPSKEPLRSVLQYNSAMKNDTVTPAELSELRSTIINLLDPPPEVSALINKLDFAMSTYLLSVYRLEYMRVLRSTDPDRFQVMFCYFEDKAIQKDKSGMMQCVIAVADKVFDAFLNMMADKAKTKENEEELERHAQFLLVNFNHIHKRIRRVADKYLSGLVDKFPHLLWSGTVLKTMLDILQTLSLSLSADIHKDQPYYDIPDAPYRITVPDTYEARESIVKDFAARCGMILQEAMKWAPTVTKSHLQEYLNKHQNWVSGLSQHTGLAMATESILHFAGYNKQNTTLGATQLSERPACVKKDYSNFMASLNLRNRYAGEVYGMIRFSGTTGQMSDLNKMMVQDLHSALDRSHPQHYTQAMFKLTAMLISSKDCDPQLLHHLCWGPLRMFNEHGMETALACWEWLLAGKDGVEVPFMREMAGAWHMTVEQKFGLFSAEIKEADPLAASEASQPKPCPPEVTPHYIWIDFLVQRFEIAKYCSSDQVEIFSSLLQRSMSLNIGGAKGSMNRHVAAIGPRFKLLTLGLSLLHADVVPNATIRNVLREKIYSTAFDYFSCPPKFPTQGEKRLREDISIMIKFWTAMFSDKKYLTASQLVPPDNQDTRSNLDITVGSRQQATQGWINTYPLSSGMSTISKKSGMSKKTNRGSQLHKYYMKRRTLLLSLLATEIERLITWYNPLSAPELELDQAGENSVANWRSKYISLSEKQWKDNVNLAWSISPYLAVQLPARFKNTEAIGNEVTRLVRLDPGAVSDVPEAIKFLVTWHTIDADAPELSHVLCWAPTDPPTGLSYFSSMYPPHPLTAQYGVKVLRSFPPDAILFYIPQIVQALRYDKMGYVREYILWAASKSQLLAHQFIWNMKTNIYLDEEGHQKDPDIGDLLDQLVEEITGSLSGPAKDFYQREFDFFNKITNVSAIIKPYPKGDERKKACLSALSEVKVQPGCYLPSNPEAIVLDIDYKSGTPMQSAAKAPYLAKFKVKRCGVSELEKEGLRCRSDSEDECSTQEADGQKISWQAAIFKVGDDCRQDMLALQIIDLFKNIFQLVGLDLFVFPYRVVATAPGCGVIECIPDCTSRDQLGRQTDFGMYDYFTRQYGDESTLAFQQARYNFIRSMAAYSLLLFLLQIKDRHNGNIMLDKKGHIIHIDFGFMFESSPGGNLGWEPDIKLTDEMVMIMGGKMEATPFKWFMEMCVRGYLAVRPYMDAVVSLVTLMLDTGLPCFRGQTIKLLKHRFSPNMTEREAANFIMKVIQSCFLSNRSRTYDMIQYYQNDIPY

Consider `CN(C(=O)CN1CCOCC1)c1ccc2sc3c(-c4cccc5c(=O)cc(N6CC7CCC(C6)O7)oc45)cccc3c2c1` [NU5455], for which testing at 1 µM gave an inhibition of 7.8%.
